SMILES strings stand for the structures. Where “and” joins values, the source holds several entries; their conditions need not be identical. Equal entries are not always repeated. Toxic doses and inconclusive results are not listed.

Data on 20 molecules can be found in PubChem BioAssay AID248 (DTP/NCI, 2004).

In the experiment the test system is L1210 leukemia ip in BDF1 mice, survival T/C. In words: NCI In Vivo Anticancer Drug Screen. Data for tumor model L1210 Leukemia (intraperitoneal) in B6D2F1 (BDF1) mice. Particulars: endpoint: mean survival time, higher = longer survival. The method in brief:
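Mice bearing the transplanted tumor received compound or vehicle. Survival of the treated group was divided by that of the vehicle-treated control group to give the ratio.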

[1] abbreviates: dose: 100.0 mg/kg/injection, schedule: Q04DX002 (ip), vehicle: Klucel (hydroxypropylcellulose) (HPC).
Setting [2] is: dose: 100.0 mg/kg/injection, schedule: Q01DX001 (ip), vehicle: carboxymethylcellulose (CMC).
Setting [3] is: dose: 200.0 mg/kg/injection, schedule: Q01DX001 (ip), vehicle: carboxymethylcellulose (CMC).
Setting [4] is: dose: 400.0 mg/kg/injection, schedule: Q01DX001 (ip), vehicle: carboxymethylcellulose (CMC).
Where [5] appears, read: dose: 100.0 mg/kg/injection, schedule: Q01DX009 (ip), vehicle: saline with Tween-80.
The mark [6] stands for this setting: dose: 200.0 mg/kg/injection, schedule: Q01DX009 (ip), vehicle: saline with Tween-80.
Setting [7] is: dose: 400.0 mg/kg/injection, schedule: Q01DX009 (ip), vehicle: saline with Tween-80.
[8] abbreviates: dose: 100.0 mg/kg/injection, schedule: Q01DX009 (ip), vehicle: Klucel (hydroxypropylcellulose) (HPC).
Where [9] appears, read: dose: 200.0 mg/kg/injection, schedule: Q01DX009 (ip), vehicle: Klucel (hydroxypropylcellulose) (HPC).
Where [10] appears, read: dose: 400.0 mg/kg/injection, schedule: Q01DX009 (ip), vehicle: Klucel (hydroxypropylcellulose) (HPC).
[11] abbreviates: dose: 100.0 mg/kg/injection, schedule: Q04DX003 (ip), vehicle: Klucel (hydroxypropylcellulose) (HPC).
Setting [12] is: dose: 200.0 mg/kg/injection, schedule: Q04DX003 (ip), vehicle: Klucel (hydroxypropylcellulose) (HPC).
Where [13] appears, read: dose: 400.0 mg/kg/injection, schedule: Q04DX003 (ip), vehicle: Klucel (hydroxypropylcellulose) (HPC).

On to `Cc1ccc(NC(=O)Oc2ccccc2F)cc1NC(=O)Oc1ccccc1F`, for which the T/C was 102 % of control (dose: 100.0 mg/kg/injection, schedule: Q01DX009 (ip), vehicle: other); 90 % of control (dose: 200.0 mg/kg/injection, schedule: Q01DX009 (ip), vehicle: other); 94 % of control (dose: 400.0 mg/kg/injection, schedule: Q01DX009 (ip), vehicle: other).

Consider `CCN(CC)C(=S)Oc1c(C(C)(C)C)cc([N+](=O)[O-])c(C)c1[N+](=O)[O-]`, for which the T/C was 90 % of control under setting [1]; 100 % of control (dose: 200.0 mg/kg/injection, schedule: Q04DX002 (ip), vehicle: Klucel (hydroxypropylcellulose) (HPC)); 97 % of control (dose: 400.0 mg/kg/injection, schedule: Q04DX002 (ip), vehicle: Klucel (hydroxypropylcellulose) (HPC)).

For the molecule `CC(=O)OC1CC2(O)C(CCC3(C)C(c4ccc(=O)oc4)CCC32O)C2(C)C1=CC(O)C1OC12` (stereo not drawn), the T/C runs as follows: (dose: 0.06 mg/kg/injection, schedule: Q01DX001 (sc), vehicle: steriod suspending solution) 105 % of control; (dose: 0.13 mg/kg/injection, schedule: Q01DX001 (sc), vehicle: steriod suspending solution) 103 % of control; (dose: 0.25 mg/kg/injection, schedule: Q01DX001 (sc), vehicle: steriod suspending solution) 105 % of control; (dose: 0.5 mg/kg/injection, schedule: Q01DX001 (sc), vehicle: steriod suspending solution) 100 % of control and 102 % of control; (dose: 1.0 mg/kg/injection, schedule: Q01DX001 (sc), vehicle: steriod suspending solution) 96 % of control; (dose: 2.0 mg/kg/injection, schedule: Q01DX001 (sc), vehicle: steriod suspending solution) 104 % of control.

As to `CCOC(=O)c1ccc2c(c1)Cc1c-2cc(Br)c(N)c1Br`, the T/C was 100 % of control under setting [2], 102 % of control under setting [3] and 91 % of control under setting [4].

In the case of `O=C(Nc1ccccc1)c1ccc2c(c1)C(=O)OC2=O`, the T/C is 102 % of control under setting [5], 94 % of control under setting [6] and 89 % of control under setting [7].

Consider `CC(=O)OCC1OC(n2cnc3c(=S)nc[nH]c32)C(OC(C)=O)C1OC(C)=O` (stereo not drawn), for which the T/C by setting is: (dose: 6.5 mg/kg/injection, schedule: Q01DX Z (ip), vehicle: carboxymethylcellulose (CMC)) 122 % of control; (dose: 13.0 mg/kg/injection, schedule: Q01DX Z (ip), vehicle: carboxymethylcellulose (CMC)) 113 % of control; (dose: 40.0 mg/kg/injection, schedule: Q01DX Z (ip), vehicle: carboxymethylcellulose (CMC)) 151 % of control; (dose: 180.0 mg/kg/injection, schedule: Q01DX Z (ip), vehicle: carboxymethylcellulose (CMC)) 107 % of control.

Consider `CCCCCCCCCCC(CCCCCCCCCC)CC1CCCC1`, for which the T/C (dose: 75.0 mg/kg/injection, schedule: Q01DX001 (ip), vehicle: saline with Tween-80) was 100 % of control; the T/C (dose: 150.0 mg/kg/injection, schedule: Q01DX001 (ip), vehicle: saline with Tween-80) is 103 % of control; the T/C (dose: 300.0 mg/kg/injection, schedule: Q01DX001 (ip), vehicle: saline with Tween-80) was 97 % of control.

Turning to `CCOc1ccccc1NC(=O)CC(C)=O`, the T/C by setting is: under setting [8], 89 % of control; under setting [9], 88 % of control; under setting [10], 93 % of control.

Regarding `[O-][n+]1onc(-c2ccccn2)c1-c1ccccn1`, the T/C (dose: 100.0 mg/kg/injection, schedule: Q04DX002 (ip), vehicle: saline with Tween-80) was 95 % of control; the T/C (dose: 200.0 mg/kg/injection, schedule: Q04DX002 (ip), vehicle: saline with Tween-80) was 100 % of control; the T/C (dose: 400.0 mg/kg/injection, schedule: Q04DX002 (ip), vehicle: saline with Tween-80) is 103 % of control.

Regarding `Cc1ccc(S(=O)(=O)CCN2CCN(C)CC2)cc1`, the T/C was 100 % of control (dose: 100.0 mg/kg/injection, schedule: Q01DX001 (ip), vehicle: saline) and 94 % of control (dose: 200.0 mg/kg/injection, schedule: Q01DX001 (ip), vehicle: saline).

Take `NC(N)=Nc1ccc(S(=O)(=O)O)cc1`: the T/C (dose: 100.0 mg/kg/injection, schedule: Q04DX003 (ip), vehicle: saline) is 103 % of control; the T/C (dose: 200.0 mg/kg/injection, schedule: Q04DX003 (ip), vehicle: saline) is 105 % of control; the T/C (dose: 400.0 mg/kg/injection, schedule: Q04DX003 (ip), vehicle: saline) was 103 % of control.

Take `CCC1OC(=O)CC(O)C(C)C(OC2OC(C)CC(N(C)C)C2O)C(CC=O)CC(C)C(=O)/C=C/C2(C)OC2C1C` (stereo not drawn): the T/C is 93 % of control (dose: 75.0 mg/kg/injection, schedule: Q01DX009 (ip), vehicle: saline with Tween-80) and 102 % of control (dose: 150.0 mg/kg/injection, schedule: Q01DX009 (ip), vehicle: saline with Tween-80).

As to `CC(C)C(CN)(CCCN1CCOCC1)c1cccc2ccccc12` (stereo not drawn), the T/C is 94 % of control under setting [5] and 89 % of control under setting [6].

Regarding `Cc1nn2c(=O)[nH]cnc2c1Cl`, the T/C is 108 % of control under setting [5]; 91 % of control (dose: 100.0 mg/kg/injection, schedule: Q04DX003 (ip), vehicle: saline with Tween-80); 108 % of control under setting [6]; 89 % of control (dose: 200.0 mg/kg/injection, schedule: Q04DX003 (ip), vehicle: saline with Tween-80); 105 % of control under setting [7]; 92 % of control (dose: 400.0 mg/kg/injection, schedule: Q04DX003 (ip), vehicle: saline with Tween-80).

With `CCS(=O)(=O)c1ccc(NC(=O)OC(C)(c2ccccc2)C2CCCCC2)cc1` (stereo not drawn), the T/C under setting [2] is 96 % of control, the T/C under setting [3] was 91 % of control and the T/C under setting [4] is 100 % of control.

Take `CNC(C#N)Cc1ccccc1` (stereo not drawn): the T/C is 96 % of control (dose: 2.5 mg/kg/injection, schedule: Q01DX009 (ip), vehicle: saline); 98 % of control (dose: 5.0 mg/kg/injection, schedule: Q01DX009 (ip), vehicle: saline); 104 % of control (dose: 10.0 mg/kg/injection, schedule: Q01DX009 (ip), vehicle: saline); 101 % of control (dose: 20.0 mg/kg/injection, schedule: Q01DX009 (ip), vehicle: saline).

As for `O=C(NC1CCCCC1)Oc1ccc(-c2ccccc2)cc1Cl`, the T/C reads like this: under setting [8], 101 % of control; under setting [11], 111 % of control; under setting [9], 107 % of control; under setting [12], 104 % of control; under setting [10], 98 % of control; under setting [13], 98 % of control.

In the case of `CN(C)Cc1cc(C23CC4CC(CC(C4)C2)C3)cc(-c2ccccc2)c1O`, the T/C is 95 % of control (dose: 100.0 mg/kg/injection, schedule: Q04DX003 (ip), vehicle: acetone); 98 % of control (dose: 200.0 mg/kg/injection, schedule: Q04DX003 (ip), vehicle: acetone); 90 % of control (dose: 400.0 mg/kg/injection, schedule: Q04DX003 (ip), vehicle: acetone).

As for `Cc1nc2ccccc2[nH]1`, the T/C reads like this: (dose: 25.0 mg/kg/injection, schedule: Q04DX002 (ip), vehicle: Klucel (hydroxypropylcellulose) (HPC)) 109 % of control; (dose: 50.0 mg/kg/injection, schedule: Q04DX002 (ip), vehicle: Klucel (hydroxypropylcellulose) (HPC)) 105 % of control; under setting [1], 105 % of control.

For the molecule `CN(C)C(=S)SN(C)C(=O)Nc1ccccc1`, the T/C is 105 % of control under setting [11], 109 % of control under setting [12] and 107 % of control under setting [13].
